# In patent US6875451B2, “Compositions and methods for the treatment of primary and metastatic neoplastic diseases using arsenic compounds” (PolaRx Biopharmaceuticals Inc., priority 1997, dated 2005):
# Key:
# Assay type in all cases: cell-based
# HS 578T = assay: SRB growth assay, 6 days exposure, breast cancer
# Protocol: (§1) Arsenic trioxide (1 mg/ml, 10 mg/ampoule, manufactured by Taylor Pharmaceuticals, Decatur, Ill.) was tested at five concentrations each at 10-fold dilutions, i.e., 10^−5, 10^−6, 10^−7, 10^−8 and 10^−9 μg/ml.
# (§2) The in vitro tests were performed by incubating the test cells in the presence of the indicated concentration of arsenic trioxide under standard culture conditions for a designated period of time, which is followed by a sulforhodamine B (SRB) protein assay to estimate cell viability or growth. The cell lines are organized into subpanels according to the origin of the cell lines, e.g., leukemia, breast cancer, etc. A description of the cell lines and method of testing is described in Monk et al. (1997, Anticancer Drug Des. 12:533-41) and Weinstein et al., (1997, Science 275:343-9), which are incorporated herein in their entirety.
# (§3) The measurement of an effect is expressed in Percentage Growth (PG). The measured effect of the compound on a cell line is calculated according to one or the other of the following two expressions: If (Mean ODtest−Mean ODzero)≧0. then PG=100×(Mean ODtest−Mean ODzero)/(Mean ODctrl−Mean ODzero) If (Mean ODtest−Mean ODzero)<0. then PG=100×(Mean ODtest−Mean ODzero)/(Mean ODzero where: • Mean ODzero=the average of optical density measurements of SRB-derived color just before exposure of cells to the test compounds; • Mean ODtest=the average of optical density measurements of SRB-derived color after exposure of cells to the test compound for a designated period of time; and • Mean ODctrl=the average of optical density measurements of SRB-derived color after with no exposure of cells to the test compound for a designated period of time
# (§4) The first two columns describe the subpanel (e.g., leukemia) and cell line (e.g., CCRF-CEM) involved. The next two columns list the Mean ODzero and Mean ODctrl; the next five columns list the Mean ODtest for each of five different concentrations. Each concentration is expressed as the log10 (molar or μg/ml). The next five columns list the calculated PGs for each concentration. The response parameters GI50, TGI and LC50 are interpolated values representing the concentrations at which the PG is +50, 0, and −50, respectively. Sometimes these response parameters cannot be obtained by interpolation. If, for instance, all of the PGs in a given row exceed +50, then none of the three parameters can be obtained by interpolation. In such a case, the value given for each response parameter is the highest concentration tested and is preceded by a “>” sign. This practice is extended similarly to the other possible situations where a response parameter cannot be obtained by interpolation.
# (§5) In the first set, the cells from 56 different cancer cell lines were exposed to five concentrations of arsenic trioxide continuously for two days prior to performing the SRB assay. In the second set, the cells from 50 different cell lines (a subset of the first 56 cell lines, plus the renal cancer cell line 786-0) were exposed continuously for six days prior to the SRB assay.
# MCF7 = assay: SRB growth assay, 6 days exposure, breast cancer; details: MCF7, 6 days
# Protocol: as §1, §2, §3, §4, §5
# NCI/ADR-RIS = assay: SRB growth assay, 6 days exposure, breast cancer
# Protocol: as §1, §2, §3, §4, §5
# COLO 205 = assay: SRB growth assay, 6 days exposure, colon cancer; details: COLO 205, 6 days
# Protocol: as §1, §2, §3, §4, §5
# KM12 = assay: SRB growth assay, 6 days exposure, colon cancer; details: KM12, 6 days
# Protocol: as §1, §2, §3, §4, §5
# SW-620 = assay: SRB growth assay, 6 days exposure, colon cancer; details: SW-620, 6 days
# Protocol: as §1, §2, §3, §4, §5
# HCT-116 = assay: SRB growth assay, 6 days exposure, colon cancer; details: HCT-116, 6 days
# Protocol: as §1, §2, §3, §4, §5
# HT29 = assay: SRB growth assay, 6 days exposure, colon cancer; details: HT29, 6 days
# Protocol: as §1, §2, §3, §4, §5
# [1] = read-out: LC50 (the source's name)
substance,measurement,setting,value
arsenic trioxide,TGI,HS 578T,4.12E−06
same,Mean Optical Densities,HS 578T; Log 10 Concentration −4.9,0.010
same,Percent Growth,HS 578T; Log 10 Concentration −4.9,−91%
same,Mean Optical Densities,HS 578T; Log 10 Concentration −5.9,0.706
same,Percent Growth,HS 578T; Log 10 Concentration −5.9,96%
same,Mean Optical Densities,HS 578T; Log 10 Concentration −6.9,0.890
same,Percent Growth,HS 578T; Log 10 Concentration −6.9,126%
same,Mean Optical Densities,HS 578T; Log 10 Concentration −7.9,0.587
same,Percent Growth,HS 578T; Log 10 Concentration −7.9,77%
same,Mean Optical Densities,HS 578T; Log 10 Concentration −8.9,0.777
same,Percent Growth,HS 578T; Log 10 Concentration −8.9,108%
same,TGI,MCF7,3.66E−06
same,Mean Optical Densities,MCF7; Log 10 Concentration −4.9,0.008
same,Percent Growth,MCF7; Log 10 Concentration −4.9,−73%
same,Mean Optical Densities,MCF7; Log 10 Concentration −5.9,1.683
same,Percent Growth,MCF7; Log 10 Concentration −5.9,63%
same,Mean Optical Densities,MCF7; Log 10 Concentration −6.9,2.603
same,Percent Growth,MCF7; Log 10 Concentration −6.9,98%
same,Mean Optical Densities,MCF7; Log 10 Concentration −7.9,2.611
same,Percent Growth,MCF7; Log 10 Concentration −7.9,99%
same,Mean Optical Densities,MCF7; Log 10 Concentration −8.9,2.647
same,Percent Growth,MCF7; Log 10 Concentration −8.9,100%
same,TGI,NCI/ADR-RIS,>1.26E−05
same,Mean Optical Densities,NCI/ADR-RIS; Log 10 Concentration −4.9,0.072
same,Percent Growth,NCI/ADR-RIS; Log 10 Concentration −4.9,1%
same,Mean Optical Densities,NCI/ADR-RIS; Log 10 Concentration −5.9,1.319
same,Percent Growth,NCI/ADR-RIS; Log 10 Concentration −5.9,56%
same,Mean Optical Densities,NCI/ADR-RIS; Log 10 Concentration −6.9,1.951
same,Percent Growth,NCI/ADR-RIS; Log 10 Concentration −6.9,84%
same,Mean Optical Densities,NCI/ADR-RIS; Log 10 Concentration −7.9,2.253
same,Percent Growth,NCI/ADR-RIS; Log 10 Concentration −7.9,98%
same,Mean Optical Densities,NCI/ADR-RIS; Log 10 Concentration −8.9,2.075
same,Percent Growth,NCI/ADR-RIS; Log 10 Concentration −8.9,90%
same,CC50,NCI/ADR-RIS; [1],> 12.6 µM
same,TGI,COLO 205,>1.26E−05
same,Mean Optical Densities,COLO 205; Log 10 Concentration −4.9,0.024
same,Percent Growth,COLO 205; Log 10 Concentration −4.9,0%
same,Mean Optical Densities,COLO 205; Log 10 Concentration −5.9,1.404
same,Percent Growth,COLO 205; Log 10 Concentration −5.9,59%
same,Mean Optical Densities,COLO 205; Log 10 Concentration −6.9,2.283
same,Percent Growth,COLO 205; Log 10 Concentration −6.9,97%
same,Mean Optical Densities,COLO 205; Log 10 Concentration −7.9,2.026
same,Percent Growth,COLO 205; Log 10 Concentration −7.9,86%
same,Mean Optical Densities,COLO 205; Log 10 Concentration −8.9,2.308
same,Percent Growth,COLO 205; Log 10 Concentration −8.9,98%
same,CC50,COLO 205; [1],> 12.6 µM
same,TGI,KM12,>1.26E−05
same,Mean Optical Densities,KM12; Log 10 Concentration −4.9,0.017
same,Percent Growth,KM12; Log 10 Concentration −4.9,1%
same,Mean Optical Densities,KM12; Log 10 Concentration −5.9,0.036
same,Percent Growth,KM12; Log 10 Concentration −5.9,4%
same,Mean Optical Densities,KM12; Log 10 Concentration −6.9,0.507
same,Percent Growth,KM12; Log 10 Concentration −6.9,83%
same,Mean Optical Densities,KM12; Log 10 Concentration −7.9,0.533
same,Percent Growth,KM12; Log 10 Concentration −7.9,87%
same,Mean Optical Densities,KM12; Log 10 Concentration −8.9,0.487
same,Percent Growth,KM12; Log 10 Concentration −8.9,80%
same,CC50,KM12; [1],> 12.6 µM
same,TGI,SW-620,3.43E−06
same,Mean Optical Densities,SW-620; Log 10 Concentration −4.9,0.007
same,Percent Growth,SW-620; Log 10 Concentration −4.9,−72%
same,Mean Optical Densities,SW-620; Log 10 Concentration −5.9,1.475
same,Percent Growth,SW-620; Log 10 Concentration −5.9,55%
same,Mean Optical Densities,SW-620; Log 10 Concentration −6.9,2.337
same,Percent Growth,SW-620; Log 10 Concentration −6.9,88%
same,Mean Optical Densities,SW-620; Log 10 Concentration −7.9,2.308
same,Percent Growth,SW-620; Log 10 Concentration −7.9,87%
same,Mean Optical Densities,SW-620; Log 10 Concentration −8.9,2.613
same,Percent Growth,SW-620; Log 10 Concentration −8.9,99%
same,TGI,HCT-116,>1.26E−05
same,Mean Optical Densities,HCT-116; Log 10 Concentration −4.9,1.931
same,Percent Growth,HCT-116; Log 10 Concentration −4.9,56%
same,Mean Optical Densities,HCT-116; Log 10 Concentration −5.9,3.284
same,Percent Growth,HCT-116; Log 10 Concentration −5.9,96%
same,Mean Optical Densities,HCT-116; Log 10 Concentration −6.9,3.381
same,Percent Growth,HCT-116; Log 10 Concentration −6.9,99%
same,Mean Optical Densities,HCT-116; Log 10 Concentration −7.9,3.289
same,Percent Growth,HCT-116; Log 10 Concentration −7.9,96%
same,Mean Optical Densities,HCT-116; Log 10 Concentration −8.9,3.395
same,Percent Growth,HCT-116; Log 10 Concentration −8.9,99%
same,CC50,HCT-116; [1],> 12.6 µM
same,TGI,HT29,>1.26E−05
same,Mean Optical Densities,HT29; Log 10 Concentration −4.9,0.027
same,Percent Growth,HT29; Log 10 Concentration −4.9,0%
same,Mean Optical Densities,HT29; Log 10 Concentration −5.9,1.476
same,Percent Growth,HT29; Log 10 Concentration −5.9,48%
same,Mean Optical Densities,HT29; Log 10 Concentration −6.9,2.706
same,Percent Growth,HT29; Log 10 Concentration −6.9,88%
same,Mean Optical Densities,HT29; Log 10 Concentration −7.9,2.988
same,Percent Growth,HT29; Log 10 Concentration −7.9,98%
same,Mean Optical Densities,HT29; Log 10 Concentration −8.9,3.189
same,Percent Growth,HT29; Log 10 Concentration −8.9,104%
same,CC50,HT29; [1],> 12.6 µM
